# System: human PBMCs
# Test: IFN-α induction assay: IFN-α induction by TLR agonists in human PBMCs (Luminex)
# Type: cell-based
# Conditions: 24 h incubation, comparative compounds, Table 2
# Procedure: IFN-α Induction Assay—IFN-α Induction by TLR Agonists in Human PBMCs
# Materials and Devices: Bio Plex 200 Luminex device, and BioPlex Manager software; MultiScreen Filter Plates (Millipore, MABVN1250); low binding reaction vials 1.5 ml (Sarstedt, 72.706.600); Activation Buffer: 0.1M Na-dihydrogen phosphate, 0.1M Di-Na hydrogen phosphate pH 6.2; Sulfo-NHS (N-hydroxysulfosuccinimide) solution: 50 mg/ml in water (freshly prepared); EDC solution: 50 mg/ml in water (freshly prepared); Coupling Buffer: PBS; Washing Buffer: PBS+0.05% Tween20; Blocking Buffer: PBS+10 mg/ml BSA+0.05% sodium azide; Assay Buffer: PBS+10 mg/ml BSA;
# In each well of a 96-well U-bottom plate 200,000 PBMCs were pre-incubated in medium (RPMI1640−Gibco #61870-044÷10% FBS+1% L-glutamine) for 5 hours at 37° C. and 5% CO2 before the compounds of the present invention or controls were added, respectively. Upon addition of compounds of the present invention or controls, the cells are incubated for another 24 h at 37° C. and 5% Co2.
# Luminex assay, Step 1: Coupling of antibody to beads: • transfer a suspension (beads are stored in buffer as provided by manufacturer) of about 5 million MicroPlex Microspheres (=beads) into a low binding reaction vial • centrifuge bead suspension for 1 min at 10,000 g, discard supernatant and resuspend pellet in 160 μl Activation Buffer, repeat once • add 20 μl Sulfo-NHS solution and 20 μl EDC solution, vortex • incubate for 20 min in the absence of light • centrifuge bead suspension for 1 min at 10,000 g, discard supernatant and resuspend pellet in 500 μl Coupling Buffer, repeat once • add capture antibody (CaptureAK eBioscience #BMS160, 5 μg per 1 Mio beads) • incubate 2 h at RT in the absence of light while swaying • centrifuge bead suspension for 1 min at 10,000 g, discard supernatant and resuspend pellet in 500 μl Washing Buffer, repeat once • centrifuge bead suspension for 1 min at 10,000 g, discard supernatant and resuspend pellet in 100 μl Blocking Buffer
# Luminex Assay, Step 2: Measurement • add 100 μl Assay Buffer into each filter plate well (seal any unused wells with adhesive tape), then remove buffer • add about 2,000 beads per well per analyte (per analyte, a different bead type with distinct fluorescence color is used), suspended in 50 μL of Assay Buffer • remove buffer and wash twice with 100 μl Washing Buffer per well • per well, add 50 μl sample solution from the (pre-)incubation step (cell supernatant), or Standard (IFN-α standard eBioscience #BMS216MST—concentration gradient, highest standard concentration 2500 pg/ml) or Assay Buffer (as blanks) • shake plate • incubate plate for 2 h at RT in the absence of light, while swaying the plate • wash three times with 100 μl Washing Buffer per well • add 25 μl antibody detection mix (DetectionAK eBioscience #BMS1016BT diluted 1:1000) in Assay Buffer per well, then vortex plate • incubate plate for 1 h at RT in the absence of light, while swaying the plate • wash three times with 100 μl Washing Buffer per well • add 50 μl Streptavidin/PE (diluted 1:200 in Assay Buffer) per well, then vortex plate • incubate plate for 10 min at RT in the absence of light, while swaying the plate • wash three times with 100 μl Washing Buffer per well • add 100 μl Assay Buffer per well, then vortex plate • start Luminex measurement according to manufacturer's instructions, measuring at least 50 beads per well per analyte
# The compounds were tested at 8 different concentrations (1 μM, 0.3 μM, 0.1 μM, 0.03 μM, 0.01 μM 0.003 μM, 0.001 μM, 0.0003 μM) using a half-logarithmic dilution. The release of Interferon-alpha (IFN-α) presents a bell-shaped distribution within the dilution window. The minimum effective concentration (MEC) is the lowest concentration required to induce the desired IFN-α release. It represents the outset of the bell-shaped distribution and is given in nM. […]
row,Structure (SMILES),Minimum effective concentration IFN-α release
1,"CCNCc1nc2c(N)nc3ccccc3c2n1CCCCN(C(C)=O)C1CCS(=O)(=O)C1 (stereo not drawn) [10′, reference compound]",inactive
2,"CCNCc1nc2c(N)nc3ccccc3c2n1CCCCN(C(=O)OC)C1CCS(=O)(=O)C1 (stereo not drawn) [11′, reference compound]",inactive

# Same assay, conditions: PBMC, 24 h incubation, comparative compounds, Table 2, read-out: Minimum effective concentration IFN-α release
row,Structure (SMILES),minimal effective concentration [µM]
1,"CCc1nc2c(N)nc3ccccc3c2n1CCCCN(C(C)=O)C1CCS(=O)(=O)C1 (stereo not drawn) [7′, N-[4-(4-amino-2-ethyl-1H-imidazo[4,5-c]quinolin-1-yl)butyl]-N-(1,1-dioxidotetrahydro-3-thienyl)acetamide, reference compound]",0.3
2,"CCc1nc2c(N)nc3ccccc3c2n1CCCCN(C(=O)OC)C1CCS(=O)(=O)C1 (stereo not drawn) [8′, reference compound]",0.1
3,"CCc1nc2c(N)nc3ccccc3c2n1CCCCN(C(N)=O)C1CCS(=O)(=O)C1 (stereo not drawn) [9′, reference compound]",0.3
4,"CCNCc1nc2c(N)nc3ccccc3c2n1CCCCN(C(N)=O)C1CCS(=O)(=O)C1 (stereo not drawn) [12′, reference compound]",10
5,"COCCc1nc2c(N)nc3ccccc3c2n1CCCCN(C(C)=O)C1CCS(=O)(=O)C1 (stereo not drawn) [13′, reference compound]",0.03
6,"COCCc1nc2c(N)nc3ccccc3c2n1CCCCN(C(=O)OC)C1CCS(=O)(=O)C1 (stereo not drawn) [14′, reference compound]",0.01
7,"COCCc1nc2c(N)nc3ccccc3c2n1CCCCN(C(N)=O)C1CCS(=O)(=O)C1 (stereo not drawn) [15′, reference compound]",0.1

# Same assay, conditions: PBMC, 24 h incubation, lowest concentration inducing the desired IFN-α release, Table 1, read-out: Minimum effective concentration IFN-α release
row,Structure (SMILES),minimal effective concentration [µM]
1,"CCc1nc2c(N)nc3ccccc3c2n1CCCCN(C(C)=O)C1CS(=O)(=O)C1 [Example 7, N-(4-(4-Amino-2-ethyl-1H-imidazo[4,5-c]quinolin-1-yl)butyl)-N-(1,1-dioxidothietan-3-yl)acetamide]",0.1
2,"CCc1nc2c(N)nc3ccccc3c2n1CCCCN(C(=O)OC)C1CS(=O)(=O)C1 [Example 8, Methyl (4-(4-amino-2-ethyl-1H-imidazo[4,5-c]quinolin-1-yl)butyl)(1,1-dioxidothietan-3-yl)carbamate]",0.03
3,"CCc1nc2c(N)nc3ccccc3c2n1CCCCN(C(N)=O)C1CS(=O)(=O)C1 [Example 9, 1-(4-(4-Amino-2-ethyl-1H-imidazo[4,5-c]quinolin-1-yl)butyl)-1-(1,1-dioxidothietan-3-yl)urea]",0.1
4,"CCNCc1nc2c(N)nc3ccccc3c2n1CCCCN(C(C)=O)C1CS(=O)(=O)C1 [Example 10, N-(4-(4-Amino-2-((ethylamino)methyl)-1H-imidazo[4,5-c]quinolin-1-yl)butyl)-N-(1,1-dioxidothietan-3-yl)acetamide]",1
5,"CCNCc1nc2c(N)nc3ccccc3c2n1CCCCN(C(=O)OC)C1CS(=O)(=O)C1 [Example 11, Methyl (4-(4-amino-2-((ethylamino)methyl)-1H-imidazo[4,5-c]quinolin-1-yl)butyl)(1,1-dioxidothietan-3-yl)carbamate]",0.1
6,"CCNCc1nc2c(N)nc3ccccc3c2n1CCCCN(C(N)=O)C1CS(=O)(=O)C1 [Example 12, 1-(4-(4-Amino-2-((ethylamino)methyl)-1H-imidazo[4,5-c]quinolin-1-yl)butyl)-1-(1,1-dioxidothietan-3-yl)urea]",3
7,"COCCc1nc2c(N)nc3ccccc3c2n1CCCCN(C(C)=O)C1CS(=O)(=O)C1 [Example 13, N-(4-(4-Amino-2-(2-methoxyethyl)-1H-imidazo[4,5-c]quinolin-1-yl)butyl)-N-(1,1-dioxidothietan-3-yl)acetamide]",0.01
8,"COCCc1nc2c(N)nc3ccccc3c2n1CCCCN(C(=O)OC)C1CS(=O)(=O)C1 [Example 14, Methyl (4-(4-amino-2-(2-methoxyethyl)-1H-imidazo[4,5-c]quinolin-1-yl)butyl)(1,1-dioxidothietan-3-yl)carbamate]",0.001
9,"COCCc1nc2c(N)nc3ccccc3c2n1CCCCN(C(N)=O)C1CS(=O)(=O)C1 [Example 15, 1-(4-(4-Amino-2-(2-methoxyethyl)-1H-imidazo[4,5-c]quinolin-1-yl)butyl)-1-(1,1-dioxidothietan-3-yl)urea]",0.02

# System: IFN-α secretion
# Test: In vivo profiling: plasma IFN-α after single intravenous infusion in cynomolgus monkeys (ELISA)
# Conditions: cynomolgus monkey, single dose 0.3 mg/kg (smallest dose tested), 30 min i.v. infusion
# Procedure: In the following studies, a compound according to the invention was examined in an in vivo cynomolgus monkey model. It is evaluated whether and at which applied dose the compounds cause secretion of IFN-α.
# In particular, a defined single dose of test compound was applied intravenously to cynomolgus monkeys by a thirty minute infusion. At several time points after initiation of the intravenous compound application, blood samples (0.5 mL for approximately 0.25 mL plasma) were collected from the vena cephalica antebrachii or vena saphena into K3EDTA tubes from the animals. Blood samples were stored on crushed ice prior to centrifugation. Plasma was obtained by centrifugation at 4° C. and approximately 1800 g for 10 minutes and was aliquoted into labeled micro tubes and stored frozen at −70° C. or below. Plasma samples were thawed, diluted and used for determination of IFN-α levels using an IFN-α Elisa Kit (e.g. VeriKine™ Cynomolgus/Rhesus IFN-α ELISA Kit) according to the manufacturer's instructions.
row,Structure (SMILES),peak plasma IFN-α concentration
1,"CCc1nc2c(N)nc3ccccc3c2n1CCCCN(C(C)=O)C1CS(=O)(=O)C1 [Example 7, N-(4-(4-Amino-2-ethyl-1H-imidazo[4,5-c]quinolin-1-yl)butyl)-N-(1,1-dioxidothietan-3-yl)acetamide]",about 5000 pg/ml

# Same assay, conditions: cynomolgus monkey, single dose 10 mg/kg, 30 min i.v. infusion
row,Structure (SMILES),peak plasma IFN-α concentration
1,"CCc1nc2c(N)nc3ccccc3c2n1CCCCN(C(C)=O)C1CS(=O)(=O)C1 [Example 7, N-(4-(4-Amino-2-ethyl-1H-imidazo[4,5-c]quinolin-1-yl)butyl)-N-(1,1-dioxidothietan-3-yl)acetamide]","about 30,000 pg/ml"

# System: superficial basal cell carcinomas
# Test: not given
# Conditions: marketed as 5% cream (Aldara); cited from earlier work
row,Structure (SMILES),5-year clearance of superficial basal cell carcinomas
1,"CC(C)Cn1cnc2c(N)nc3ccccc3c21 [Imiquimod, imiquimod]",approx. 80%
